Biological target: T1, Cathepsin K (Homo sapiens, UniProt P43235)
T1 sequence (P43235 whole entry): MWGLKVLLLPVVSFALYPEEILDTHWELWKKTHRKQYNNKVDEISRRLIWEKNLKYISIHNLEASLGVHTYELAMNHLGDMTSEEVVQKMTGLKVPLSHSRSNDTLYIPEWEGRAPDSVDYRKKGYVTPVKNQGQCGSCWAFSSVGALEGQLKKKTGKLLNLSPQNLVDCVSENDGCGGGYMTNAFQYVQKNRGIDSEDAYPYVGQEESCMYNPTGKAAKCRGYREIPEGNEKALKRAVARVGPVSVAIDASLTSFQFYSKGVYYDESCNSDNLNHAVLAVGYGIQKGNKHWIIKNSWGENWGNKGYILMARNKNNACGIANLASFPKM
Assay: Inhibition of cathepsin K by fluorimetric assay

IC50 [nM]	Compound
170	CC(C)=CCC/C(C)=C/Cc1c(CCC(=O)c2ccc(O)cc2O)ccc(O)c1O
840	CC(C)=CCCC1(C)C=Cc2c(cc(O)c3c2OC(c2ccc(O)cc2)CC3=O)O1 (stereo not drawn) [CYCLOALTILISIN 7]

Compound	IC50 [nM]
CC(C)=CCC/C(C)=C/Cc1c(CCC(=O)c2ccc(O)cc2O)cc(-c2cc(O)c(O)c(C/C=C(\C)CCC=C(C)C)c2CCC(=O)c2ccc(O)cc2O)c(O)c1O [CYCLOALTILISIN 6]	98
